Entries after “also recorded” stand apart in the source; their conditions may differ.
Experiments:
[1] = tested on: PMN suppressor phenotype (suppression of anti-CD3/CD28-stimulated T cell proliferation); test: Coculture of PMN with ascites supernatants and anti-CD3/CD28-stimulated T cells; T cell proliferation by [3H] thymidine incorporation; format: cell-based, human
Protocol: (§1) Freshly isolated T cells (1e5) were stimulated with anti-CD3/CD28 Dynabeads (2.5 μl; Thermo Fisher Scientific) and cocultured with autologous PMN (1:1) and ascites supernatants (50% final well volume) in an incubator at 37° C., 5% CO2. After 72 h, [^3H] thymidine (1 μCi per well) was added and allowed to incorporate for 16-18 h. Cells were harvested onto a Filtermat and counted on a Beta counter. Results are expressed as net cpm [calculated by subtracting the average cpm of unstimulated T cells from the average cpm of stimulated T cells].
Where indicated, T cells, PMN, and ascites supernatants underwent various pretreatments. Where indicated, T cells were pretreated for lh with neutralizing antibody against ICAM-I (1-10 μg), IgG1 isotype (1-10 μg), or media (RPMI 1640, 5-10% heat-inactivated FBS, HEPES, sodium pyruvate, non-essential amino acids, and penicillin-streptomycin).
Where indicated, PMN were pretreated for lh with neutralizing antibody against CD11b (1-10 μg), TGF-beta receptor 1 (1-10 μg) or IgG1 isotype (1-10 μg); thapsigargin (THG, 0.5-2 μM), diphenyleneiodonium (DPI, 1-25 μM), N-Formylmethionine-leucyl-phenylalanine (fMLF, 1-100 nM), brefeldin-A (1-10 μg/mL), ER export inhibitor 1 (Exol, 20-75 μM), CI-amidine (10-20 μM), SNARE decoys: TAT-SNAP23 (0.6-0.9 μg/mL), TAT-SYN4 (0.6-0.9 μg/mL), TAT-GST (0.6-0.9 μg/mL) (produced as described in the laboratory of Dr. Kenneth McLeish), puromycin and actinomycin-D (1-5 μg/mL), or with media.
Where indicated, ascites supernatants were pretreated with heat (56° C., lh) to denature heat-labile constituents or proteinase-K (100 μM, 37° C., 12 h) to degrade proteins. Two formulations of compstatin, a peptide C3 inhibitor, were used: CS (250 μM, 30° C., 2 h, Tocris) and Cp40 (1.25-20 μM, 30° C., 2 h), as well as a scramble peptide. In separate studies, ascites supernatants were ultra-centrifuged (100,000g, 4° C., 1.5 h) to separate the membrane-rich (MR-ASC) and membrane-depleted (MD-ASC) fractions. In others, ascites supernatants were pretreated for lh with neutralizing antibody against C5 (0.5-1.0 μg, A217; Quidel, San Diego, Calif.) or C7 (0.5-1.0 μg, A221; Quidel) or IgG1 isotype (0.5-1.0 μg), or with OmCI (0.6-1.2 μM), a peptide C5 inhibitor derived from the saliva of Ornithodoros moubata (35, 36).

[2] = tested on: PMN suppressor phenotype induced by malignant effusions; test: Coculture of PMN and stimulated T cells with malignant effusions (pleural fluid, ascites) of various metastatic cancers; T cell proliferation; format: cell-based, human; details: Cp40-treated malignant pleural fluid/ascites from various metastatic cancers (n=7)
Text: We analyzed whether the PMN suppressor phenotype induced by EOC ascites would also occur following PMN exposure to other malignant effusions. We observed a similar PMN suppressor phenotype when PMN and anti-CD3/CD28-stimulated T cells were cocultured with malignant pleural and ascites supernatants from patients with a number of metastatic cancers (18/20 samples induced a PMN suppressor or intermediate suppressor phenotype). Using samples that met the suppressor definition (Table 3), the PMN suppressor phenotype induced by malignant pleural and ascites was also abrogated by Cp40-treatment (FIG. 3K).
Patients and Specimens. Participants included healthy donors, control female patients with a benign adnexal mass undergoing resection surgery, and cancer patients with malignant effusions. Healthy donors (n=4) were Caucasian, aged 26-51, and equally divided between sexes. […]
as §1, with “After 72 h, [^3H] thymidine (1 μCi per well) was added and allowed to incorporate for 16-18 h.” left out, “cells]. […]” for “cells].”

[3] = tested on: iC3b/C3b deposition on PMN; test: Deposition of iC3b/C3b on PMN after 1.5 h coculture (clone 3E7/C3b); format: cell-based, human; details: PMN and T cells cocultured in treated ASC for 1.5 h (n=3 ASC)
Protocol: FIG. 16. Complement activation in ASC results in C3b/iC3b deposition on PMN and mediates the PMN suppressor phenotype via the AP and classical pathways. A) Activation of complement in ASC principally occurs via the AP and classical pathways, though inter-patient variability was observed. ASC were assessed for complement activity by WIESLAB ELISA kits that detect formation of C5b-9. Percent (%) activity is in relation to the provided positive control (n=38 ASC, **, p=0.0015; ****, p<0.0001). […] C) PMN and T cells were cocultured in media, ASC, Cp40-ASC, or SCR-ASC for 1.5 h. Deposition of iC3b/C3b (clone 3E7/C3b recognizes both C3b and iC3b) on PMN was increased with ASC versus media, while iC3b/C3b deposition on T cells was unaffected by ASC (not shown). iC3b/C3b binding to PMN was decreased by Cp40-ASC, and unaffected by SCR-ASC (n=3 ASC).

[4] = tested on: PMN; test: PMN viability (PI neg, Annexin-V neg) after exposure to treated ascites; details: 24 h exposure to Cp40-treated ascites
Protocol: (§2) Where indicated, cells were pelleted for immunophenotyping and supernatants were saved for ELISA at time points throughout coculture. Viability was assessed by staining with Annexin V and/or PI (Dead Cell Apoptosis Kit, V13241, Thermo Fisher Scientific), following the manufacturer's protocols. For surface phenotyping and intracellular staining, cells were stained in buffer (DPBS, 1% BSA, 2 mM EDTA) and Cytofix/Cytoperm buffer kit (BD Biosciences), respectively, following the manufacturer's protocols. Data were analyzed using FCS Express 6.

[5] = as above; details: human, PMN (neutrophils) exposed to peptide-treated ascites
Protocol: as §2

For `CC[C@H](C)[C@H](NC(=O)[C@H](N)Cc1ccc(O)cc1)C(=O)N[C@H]1CSSC[C@@H](C(=O)N(C)[C@H](C(N)=O)[C@@H](C)CC)NC(=O)[C@H](CCCNC(=N)N)NC(=O)[C@H](Cc2c[nH]cn2)NC(=O)[C@H](C)NC(=O)CN(C)C(=O)[C@H](Cc2c[nH]c3ccccc23)NC(=O)[C@H](CC(=O)O)NC(=O)[C@H](CCC(N)=O)NC(=O)[C@H](Cc2cn(C)c3ccccc23)NC(=O)[C@H](C(C)C)NC1=O` [Cp40], the “effect on PMN suppressor phenotype” value ([1]; added to ASC 2 h prior to coculture with PMN and T cells, CS 250 μM, Cp40 20 μM, scramble peptide 20 μM) was “completely abrogated the PMN suppressor phenotype; also recorded: fully abrogated the PMN suppressor phenotype; also recorded: completely abrogated the neutrophil suppressor phenotype”, the “Cp40 concentration sufficient to abrogate the PMN suppressor phenotype” value ([1]; concentration-titration study, FIG. 15B) was 2.5-20 ∥M and the “Cp40 concentration sufficient to fully abrogate the PMN suppressor phenotype” value ([1]; titration study, ASC pretreated (n=3)) was 5 µM. For the same compound, the “effect on PMN suppressor phenotype induced by malignant effusions” value [2] was “abrogated by Cp40-treatment in all of the tested samples”, the “iC3b/C3b binding to PMN” value [3] was “reduced; also recorded: decreased” and the “neutrophil viability versus untreated or scramble peptide-treated ascites” value [4] was “similar”. The viability at 24 h, 20 µM [5] was 68 ± 8%.

From patent US20210161999A1, “COMPOSITIONS AND METHODS RELATED TO OVERCOMING INNATE IMMUNE BARRIERS TO CANCER IMMUNOTHERAPY” (Health Research, Inc., priority 2018, published 2021)
